Laboratory results taken from patent publication US10322107B2, “N-methyl-N-(1-phenyl-2-(1-pyrrolidinyl)ethyl)-2-aminophenylacetamide derivatives agonists for the kappa opioid receptor” (Nektar Therapeutics, priority 2014, dated 2019).
Read-outs that look alike come from different tables or passages of the source.

Key:
[1] = biological target: T1, recombinant human mu (MOR) opioid receptor (Homo sapiens, UniProt P35372); assay: Competitive radioligand binding at MOR ([3H]naloxone), single concentration, CHO-K1 membranes; conditions: 10 μM test compound; percent inhibition of specific [3H]naloxone (4 nM) binding; read-out: Mu Opioid Receptor Mu Receptor Inhibition % inhib @ 10 uM
T1 construct: expressed in transfected cells; host or cells: CHO-K1 cells (membranes)
Protocol: The binding affinities of certain compounds of the present invention were evaluated using radioligand binding assays in membranes prepared from CHO-K1 cells expressing recombinant human kappa (KOR) or mu (MOR) opioid receptors.
Competition binding experiments were conducted by incubating membrane protein to equilibrium in triplicate in the presence of a fixed concentration of radioligand and increasing concentrations of test compound for evaluation of binding to KOR or single concentration (10 μM) of test compound for evaluation of binding to MOR in 101 μL final volume. The radioligands used were specific for each receptor type, and the assay conditions are described in Table 1. Following incubations, the membranes were rapidly filtered through GF/B filter plate (presoaked with 0.5% polyethyleneimine), washed five times with cold 50 mM Tris-HCl, pH 7.5, and the bound radioactivity was then measured by liquid scintillation counting. Non-specific binding was measured in the presence of excess ligand; this value was subtracted from the total binding to yield the specific binding at each test concentration.
Ki (affinity of test compound) was obtained using the Cheng Prusoff correction using experimental Kd (affinity of radioligand) values that were previously determined under these assay conditions. For MOR binding, compounds were tested at one concentration, 10 μM, to evaluate its ability to inhibit specific radioligand binding. The values are expressed as percent inhibition of specific binding and greater than 50% inhibition of binding was considered to be significant.

[2] = biological target: T2, KOR (kappa opioid receptor) (Homo sapiens, UniProt P41145); assay: Inhibition of cAMP accumulation in forskolin-stimulated CHO-K1 cells stably expressing KOR; type: cell-based
T2 construct: expressed in transfected cells

[3] = biological target: recombinant human kappa (KOR) opioid receptor (Homo sapiens, UniProt P41145); assay: Competitive radioligand binding at KOR ([3H]diprenorphine), CHO-K1 membranes
[4] = Cheng Prusoff correction using experimental Kd of radioligand, read-out: Kappa Opioid Receptor Ki
[5] = read-out: Kappa Opioid Receptor IC50

CN(C(=O)Cc1ccc(Cl)c(Cl)c1)[C@H](CN1CCCC1)c1cccc(NS(=O)(=O)c2cccnc2Cl)c1 [Example 4, (S)—N-(1-(3-(2-chloropyridine-3-sulfonamido)phenyl)-2-(pyrrolidin-1-yl)ethyl)-2-(3,4-dichlorophenyl)-N-methylacetamide]
inhibition at 10 µM [1]: 91.8% | EC50 [2]: 1.75 nM | Ki [3, 4]: 6.48 nM | IC50 [3, 5]: 49.7 nM

CN(C(=O)Cc1ccc(Cl)c(Cl)c1)[C@H](CN1CCCC1)c1cccc(NS(=O)(=O)c2cc(Cl)c(Cl)s2)c1 [Example 10, (S)-2-(3,4-dichlorophenyl)-N-(1-(3-(4,5-dichlorothiophene-2-sulfonamido)phenyl)-2-(pyrrolidin-1-yl)ethyl)-N-methylacetamide]
inhibition at 10 µM [1]: 95.9% | EC50 [2]: 3.74 nM | Ki [3, 4]: 1.25 nM | IC50 [3, 5]: 9.61 nM

CN(C(=O)Cc1ccc(F)c(F)c1)[C@H](CN1CC[C@H](OCCO)C1)c1ccc(OCCO)cc1 [Example 21, 2-(3,4-Difluorophenyl)-N-{(1S)-1-[4-(2-hydroxyethoxy)phenyl]-2-[(3S)-3-(2-hydroxyethoxy)pyrrolidin-1-yl]ethyl}-N-methylacetamide]
inhibition at 10 µM [1]: 0% | EC50 [2]: 33.3 nM | IC50 [3]: 1450 nM | Ki [3]: 189 nM

Cc1noc(C)c1S(=O)(=O)Nc1cccc([C@@H](CN2CCCC2)N(C)C(=O)Cc2ccc(Cl)c(Cl)c2)c1 [Example 6, (S)-2-(3,4-dichlorophenyl)-N-(1-(3-(3,5-dimethylisoxazole-4-sulfonamido)phenyl)-2-(pyrrolidin-1-yl)ethyl)-N-methylacetamide]
inhibition at 10 µM [1]: 84.6% | EC50 [2]: 1.15 nM | Ki [3, 4]: 0.39 nM | IC50 [3, 5]: 3.01 nM

CN([C@H](CN1CC[C@H](O)C1)c1ccc(OCCO)cc1)S(=O)(=O)Cc1ccc(C(F)(F)F)cc1 [Example 23, N-{(18)-1-[4-(2-Hydroxyethoxy)phenyl]-2-[(38)-3-hydroxypyrrolidin-1-yl]ethyl}-N-methyl-1-[4-(trifluoromethyl)phenyl]methanesulfonamide]
inhibition at 10 µM [1]: -2% | EC50 [2]: 53.6 nM | IC50 [3]: 1080 nM | Ki [3]: 141 nM

CC(O)CS(=O)(=O)Nc1cccc([C@@H](CN2CCCC2)N(C)C(=O)Cc2ccc(C(F)(F)F)cc2)c1 (stereo partly drawn) [Example 13, N-((1S)-1-(3-(2-hydroxypropylsulfonamido)phenyl)-2-(pyrrolidin-1-yl)ethyl)-N-methyl-2-(4-(trifluoromethyl)phenyl)acetamide]
inhibition at 10 µM [1]: 95.4% | EC50 [2]: 0.067 nM | Ki [3, 4]: 0.1 nM | IC50 [3, 5]: 0.75 nM

CN([C@H](CN1CC[C@H](O)C1)c1ccc(OCCO)cc1)S(=O)(=O)Cc1ccc(Cl)c(Cl)c1 [Example 22, 1-(3,4-Dichlorophenyl)-N-{(1S)-1-[4-(2-hydroxyethoxy)phenyl]-2-[(3S)-3-hydroxypyrrolidin-1-yl]ethyl}-N-methylmethanesulfonamide]
inhibition at 10 µM [1]: -10.3% | EC50 [2]: 15.5 nM | Ki [3, 4]: 32.2 nM | IC50 [3, 5]: 247 nM

CC(O)CS(=O)(=O)Nc1cccc([C@@H](CN2CCCC2)N(C)C(=O)Cc2ccc(Cl)c(Cl)c2)c1 (stereo partly drawn) [Example 8, 2-(3,4-dichlorophenyl)-N-((1S)-1-(3-(2-hydroxypropylsulfonamido)phenyl)-2-(pyrrolidin-1-yl)ethyl)-N-methylacetamide]
inhibition at 10 µM [1]: 99% | EC50 [2]: 0.06 nM | Ki [3, 4]: 0.05 nM | IC50 [3, 5]: 0.35 nM

CN(C(=O)Cc1ccc(Cl)c(Cl)c1)[C@H](CN1CCCC1)c1cccc(NS(=O)(=O)c2ccc(C#N)c(C(F)(F)F)c2)c1 [Example 1, (S)—N-(1-(3-(4-cyano-3-(trifluoromethyl)phenylsulfonamido)phenyl)-2-(pyrrolidin-1-yl)ethyl)-2-(3,4-dichlorophenyl)-N-methylacetamide]
inhibition at 10 µM [1]: 89% | EC50 [2]: 2 nM | Ki [3, 4]: 4.84 nM | IC50 [3, 5]: 37.1 nM

COCCN(CCOC)S(=O)(=O)Nc1cccc([C@@H](CN2CCCC2)N(C)C(=O)Cc2ccc(Cl)c(Cl)c2)c1 [Example 9, (S)—N-(1-(3-((N,N-bis(2-methoxyethyl)sulfamoyl)amino)phenyl)-2-(pyrrolidin-1-yl)ethyl)-2-(3,4-dichlorophenyl)-N-methylacetamide]
inhibition at 10 µM [1]: 101% | EC50 [2]: 0.5 nM | Ki [3, 4]: 0.47 nM | IC50 [3, 5]: 3.58 nM

CN(C(=O)Cc1ccc(Cl)c(Cl)c1)[C@H](CN1CCCC1)c1cccc(NS(=O)(=O)c2ccc(Cl)nc2)c1 [Example 3, (S)—N-(1-(3-(6-chloropyridine-3-sulfonamido)phenyl)-2-(pyrrolidin-1-yl)ethyl)-2-(3,4-dichlorophenyl)-N-methylacetamide]
inhibition at 10 µM [1]: 94.2% | EC50 [2]: 0.29 nM | Ki [3, 4]: 0.36 nM | IC50 [3, 5]: 2.79 nM

CN(C(=O)Cc1ccc(Cl)c(Cl)c1)[C@H](CN1CCCC1)c1cccc(NS(=O)(=O)c2cn(C)nc2C(F)(F)F)c1 [Example 5, (S)-2-(3,4-dichlorophenyl)-N-methyl-N-(1-(3-(1-methyl-3-(trifluoromethyl)-1H-pyrazole-4-sulfonamido)phenyl)-2-(pyrrolidin-1-yl)ethyl)acetamide]
inhibition at 10 µM [1]: 97% | EC50 [2]: 1.35 nM | Ki [3, 4]: 1.01 nM | IC50 [3, 5]: 7.74 nM

CN(C(=O)Cc1ccc(Cl)c(Cl)c1)[C@H](CN1CC(O)C1)c1ccc(OCCO)cc1 [Example 24, (S)-2-(3,4-dichlorophenyl)-N-(2-(3-hydroxyazetidin-1-yl)-1-(4-(2-hydroxyethoxy)phenyl)ethyl)-N-methylacetamide]
inhibition at 10 µM [1]: 40.1% | EC50 [2]: 0.78 nM | Ki [3, 4]: 2.71 nM | IC50 [3, 5]: 20.8 nM

CN(C(=O)Cc1ccc(F)cc1F)[C@H](CN1CC[C@H](O)C1)c1ccc(OCCO)cc1 [Example 15, 2-(2,4-Difluorophenyl)-N-{(1S)-1-[4-(2-hydroxyethoxy)phenyl]-2-[(3S)-3-hydroxypyrrolidin-1-yl]ethyl}-N-methylacetamide]
inhibition at 10 µM [1]: 23.5% | EC50 [2]: 0.164 nM | Ki [3, 4]: 0.69 nM | IC50 [3, 5]: 5.27 nM

Cc1ccc(CC(=O)N(C)[C@H](CN2CC[C@H](O)C2)c2ccc(OCCO)cc2)cn1 [Example 16, N-{(1S)-1-[4-(2-Hydroxyethoxy)phenyl]-2-[(3S)-3-hydroxypyrrolidin-1-yl]ethyl}-N-methyl-2-(6-methylpyridin-3-yl)acetamide]
inhibition at 10 µM [1]: 28.4% | EC50 [2]: 0.294 nM | Ki [3, 4]: 1.34 nM | IC50 [3, 5]: 10.3 nM

COCCN(C)S(=O)(=O)Nc1cccc([C@@H](CN2CCCC2)N(C)C(=O)Cc2ccc(Cl)c(Cl)c2)c1 [Example 7]
inhibition at 10 µM [1]: 99.9% | EC50 [2]: 0.19 nM | Ki [3, 4]: 0.09 nM | IC50 [3, 5]: 0.67 nM

CN(C(=O)Cc1ccc(F)cc1F)[C@H](CN1CC[C@H](OCCO)C1)c1ccc(OCCO)cc1 [Example 20, 2-(2,4-difluorophenyl)-N—((S)-1-(4-(2-hydroxyethoxy)phenyl)-2-((S)-3-(2-hydroxyethoxy)pyrrolidin-1-yl)ethyl)-N-methylacetamide]
inhibition at 10 µM [1]: -29.4% | EC50 [2]: 2670 nM | Ki [3, 4]: 7490 nM | IC50 ([3]; inhibition of specific [3H]diprenorphine (1 nM) binding, one experiment in triplicate, read-out: Kappa Opioid Receptor IC50): 57400 nM

CN(C(=O)Cc1ccc(Cl)c(Cl)c1)[C@H](CN1CCCC1)c1cccc(NS(=O)(=O)c2cn(C)c(=O)n(C)c2=O)c1 [Example 2, (S)-2-(3,4-dichlorophenyl)-N-(1-(3-(1,3-dimethyl-2,4-dioxo-1,2,3,4-tetrahydropyrimidine-5-sulfonamido)phenyl)-2-(pyrrolidin-1-yl)ethyl)-N-methylacetamide]
inhibition at 10 µM [1]: 87.1% | EC50 [2]: 0.311 nM | Ki [3, 4]: 0.7 nM | IC50 [3, 5]: 5.36 nM

CN(C(=O)Cc1nccs1)[C@H](CN1CC[C@H](O)C1)c1ccc(OCCO)cc1 [Example 18, N-{(1S)-1-[4-(2-Hydroxyethoxy)phenyl]-2-[(3S)-3-hydroxypyrrolidin-1-yl]ethyl}-N-methyl-2-(1,3-thiazol-2-yl)acetamide]
inhibition at 10 µM [1]: -3.2% | EC50 [2]: 4.67 nM | IC50 [3]: 135 nM | Ki [3, 4]: 17.6 nM

CC(O)CS(=O)(=O)Nc1cccc([C@@H](CN2CCCC2)N(C)C(=O)C(c2ccccc2)c2ccccc2)c1 (stereo partly drawn) [Example 12, N-((1S)-1-(3-(2-hydroxypropylsulfonamido)phenyl)-2-(pyrrolidin-1-yl)ethyl)-N-methyl-2,2-diphenylacetamide]
inhibition at 10 µM [1]: 47% | EC50 [2]: 18.5 nM | Ki [3, 4]: 48.8 nM | IC50 [3, 5]: 374 nM

CN(C(=O)C(c1ccccc1)c1ccccc1)[C@H](CN1CCCC1)c1cccc(NS(=O)(=O)CCOCC(F)(F)F)c1 [Example 11, (S)—N-methyl-2,2-diphenyl-N-(2-(pyrrolidin-1-yl)-1-(3-(2-(2,2,2-trifluoroethoxy)ethylsulfonamido)phenyl)ethyl)acetamide]
inhibition at 10 µM [1]: 57.6% | EC50 [2]: 28.8 nM | Ki [3, 4]: 45 nM | IC50 [3, 5]: 345 nM
